One assay deals with T1, hsst1 (Homo sapiens, UniProt P30872).
T1 construct: expressed in transfected cells
Briefly: Somatostatin receptor radioligand binding assay, hsst1. To be noted: CHO-K1 membranes, [125I-Tyr11]SS-14; read-out: hsst1 Ki. An outline of the steps:
(§1)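 Membranes from CHO-K1 cells stably transfected with each human SSTR subtype, incubated 90 min at 25 °C with 0.05 nM [125I-Tyr11]SS-14 in 50 mM HEPES pH 7.4 with BSA, MgCl2 and protease inhibitors; filtration read-out. Nonspecific binding with 1000 nM SS-14; Ki values reported.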

Another assay concerns the target T2, hsst2 (Homo sapiens, UniProt P30874).
T2 construct: expressed in transfected cells
Briefly: Somatostatin receptor radioligand binding assay, hsst2. To be noted: CHO-K1 membranes, [125I]MK-678; read-out: hsst2 Ki. An outline of the steps: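 Membranes from CHO-K1 cells stably expressing human SSTR2, in 10 mM Tris-HCl, incubated 90 min at 25 °C with 0.05 nM [125I]MK-678. Bound ligand collected by filtration on PEI-soaked GF/C filters; nonspecific binding defined with 1000 nM MK-678.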

A further assay deals with T3, hsst3 (Homo sapiens, UniProt P32745).
T3 construct: expressed in transfected cells
Briefly: Somatostatin receptor radioligand binding assay, hsst3. The settings on record: CHO-K1 membranes, [125I-Tyr11]SS-14; read-out: hsst3 Ki. An outline of the steps: as §1

Another assay has as its target T4, hsst5 (Homo sapiens, UniProt P35346).
T4 construct: expressed in transfected cells
Nature of the assay: Somatostatin receptor radioligand binding assay, hsst5. The settings on record: CHO-K1 membranes, [125I-Tyr11]SS-14; read-out: hsst5 Ki. The gist of the method: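 Membranes from CHO-K1 cells stably expressing hsst5, incubated 90 min at 25 °C with 0.05 nM [125I-Tyr11]SS-14 in 50 mM HEPES pH 7.4 with BSA, MgCl2 and protease inhibitors. Bound ligand collected by filtration. Non-specific binding defined with 1000 nM SS-14.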

The target of another assay is T5, hUTII (Homo sapiens, UniProt Q9UKP6).
T5 sequence (Q9UKP6 1-389): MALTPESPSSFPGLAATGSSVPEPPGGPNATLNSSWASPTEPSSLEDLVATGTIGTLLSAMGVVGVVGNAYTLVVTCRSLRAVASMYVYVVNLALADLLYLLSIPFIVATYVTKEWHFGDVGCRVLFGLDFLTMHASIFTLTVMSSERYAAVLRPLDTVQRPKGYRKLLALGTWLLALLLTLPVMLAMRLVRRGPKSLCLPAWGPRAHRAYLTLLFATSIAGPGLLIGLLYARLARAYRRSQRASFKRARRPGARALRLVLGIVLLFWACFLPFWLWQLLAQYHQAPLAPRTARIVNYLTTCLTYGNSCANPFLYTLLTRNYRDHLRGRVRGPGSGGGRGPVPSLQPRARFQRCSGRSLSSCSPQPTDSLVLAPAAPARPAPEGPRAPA
Nature of the assay: hUTII inhibition constant. It is filed as binding. To be noted: read-out: hUTII Ki. As for the experimental part: Using the discussed assays, the inhibition constants (Ki) for the five human somatostatin receptors (hSSTR1-hSSTR5) and the dopamine-2 receptor (hUTII and hDA2) were measured for the exemplified somatostatin-dopamine conjugates, as follows: […]

A further assay has as its target hDA2. Nature of the assay: Dopamine-2 receptor radioligand binding assay. Further details: species or system human. The settings on record: [3H]spiperone.

T2 sequence (P30874 whole entry): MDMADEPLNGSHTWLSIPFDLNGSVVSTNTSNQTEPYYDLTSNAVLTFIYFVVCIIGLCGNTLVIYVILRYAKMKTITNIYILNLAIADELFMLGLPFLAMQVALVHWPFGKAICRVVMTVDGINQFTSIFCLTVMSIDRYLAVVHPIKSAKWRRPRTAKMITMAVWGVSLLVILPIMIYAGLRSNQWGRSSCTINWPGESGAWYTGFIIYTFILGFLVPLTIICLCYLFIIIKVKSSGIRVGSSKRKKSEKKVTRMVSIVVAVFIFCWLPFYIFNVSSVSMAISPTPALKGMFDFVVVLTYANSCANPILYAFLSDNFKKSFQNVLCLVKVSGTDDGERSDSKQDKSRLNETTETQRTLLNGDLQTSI
T4 sequence (P35346 whole entry): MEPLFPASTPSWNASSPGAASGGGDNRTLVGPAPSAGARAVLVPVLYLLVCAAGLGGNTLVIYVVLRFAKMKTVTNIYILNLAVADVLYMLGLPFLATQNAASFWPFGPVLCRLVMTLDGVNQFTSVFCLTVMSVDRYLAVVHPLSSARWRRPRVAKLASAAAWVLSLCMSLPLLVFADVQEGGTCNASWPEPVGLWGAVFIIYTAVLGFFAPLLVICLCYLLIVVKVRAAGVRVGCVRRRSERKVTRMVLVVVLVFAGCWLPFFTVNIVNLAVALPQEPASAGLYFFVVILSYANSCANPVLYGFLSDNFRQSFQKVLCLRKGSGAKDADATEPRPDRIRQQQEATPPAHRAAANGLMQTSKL
T1 sequence (P30872 whole entry): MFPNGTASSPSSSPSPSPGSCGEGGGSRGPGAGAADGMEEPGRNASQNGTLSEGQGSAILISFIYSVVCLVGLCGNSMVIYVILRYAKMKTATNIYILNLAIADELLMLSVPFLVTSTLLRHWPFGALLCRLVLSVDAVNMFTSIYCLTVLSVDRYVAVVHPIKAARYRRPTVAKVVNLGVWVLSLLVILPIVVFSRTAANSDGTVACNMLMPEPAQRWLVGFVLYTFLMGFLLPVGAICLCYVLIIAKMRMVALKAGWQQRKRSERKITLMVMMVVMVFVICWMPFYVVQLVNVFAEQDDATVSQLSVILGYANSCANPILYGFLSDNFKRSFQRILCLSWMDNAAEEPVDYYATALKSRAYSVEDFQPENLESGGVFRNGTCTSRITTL
T3 sequence (P32745 whole entry): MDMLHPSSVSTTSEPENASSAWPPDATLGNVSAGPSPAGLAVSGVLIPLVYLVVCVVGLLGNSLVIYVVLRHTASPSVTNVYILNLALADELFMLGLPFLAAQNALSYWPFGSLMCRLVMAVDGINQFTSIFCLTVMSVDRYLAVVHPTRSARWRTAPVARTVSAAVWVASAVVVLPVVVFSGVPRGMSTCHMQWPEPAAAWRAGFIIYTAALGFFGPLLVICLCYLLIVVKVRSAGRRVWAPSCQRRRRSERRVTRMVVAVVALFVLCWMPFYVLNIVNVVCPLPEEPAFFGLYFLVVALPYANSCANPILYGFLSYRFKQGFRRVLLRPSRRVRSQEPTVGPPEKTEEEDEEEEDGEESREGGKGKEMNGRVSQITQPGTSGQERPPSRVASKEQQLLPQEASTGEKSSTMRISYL

`CC[C@@H]1NC(=O)[C@H](CCCCN)NC(=O)[C@@H](Cc2c[nH]c3ccccc23)NC(=O)[C@H](Cc2ccc(O)cc2)NC(=O)[C@@H](NC(=O)[C@@H](Cc2ccccc2)NC(=O)COCCOCCNC(=O)CSC[C@@H]2C[C@@H]3c4cccc5[nH]cc(c45)C[C@H]3N(C)C2)CSSC[C@@H](C(=O)N[C@H](C(N)=O)[C@@H](C)O)NC1=O` [Example 40]: the Ki amounted to 1000 nM at hsst1; 0.32 nM on hsst2; 70.3 nM on hsst3; 17 nM at hsst5; 223 nM on hUTII; 255 nM at hDA2.
With `CC[C@@H]1NC(=O)[C@H](CCCCN)NC(=O)[C@@H](Cc2c[nH]c3ccccc23)NC(=O)[C@H](Cc2ccc(O)cc2)NC(=O)[C@@H](NC(=O)[C@@H](Cc2ccccc2)NC(=O)COCCOCCNC(=O)COCCOCCNC(=O)CSC[C@@H]2C[C@@H]3c4cccc5[nH]cc(c45)C[C@H]3N(C)C2)CSSC[C@@H](C(=O)N[C@H](C(N)=O)[C@@H](C)O)NC1=O` [Example 42], the Ki at hsst1 came out at 1000 nM; at hsst2, 0.34 nM; at hsst3 it was 120 nM; on hsst5 it was 20.6 nM; at hUTII, 510 nM; at hDA2, 278 nM.
